The values that follow come from patent publication US7759486B2, “2,4,5-Trisubstituted pyrimidine compounds” (GlaxoSmithKline LLC, priority 2000, dated 2010).

As a reminder, the melting point is the temperature, or range, at which the solid turns liquid.

Regarding `Cc1cc(F)ccc1-c1nc(O)nc2c1ccc(=O)n2-c1ccccc1F` (hydrate or solvate) [Example 144, 2-Hydroxy-4-(4-fluoro-2-methylphenyl)-8-(2-fluorophenyl)-8H-pyrido[2,3-d]pyrimidin-7-one], the melting point is > 280 °C.
In the case of `CSCCCOc1nc(-c2ccc(F)cc2C)c2ccc(=O)n(-c3c(F)cccc3F)c2n1` [Example 127, 8-(2,6-Difluorophenyl)-4-(4-fluoro-2-methylphenyl)-2-(3-methylsulfanylpropoxy)-8H-pyrido[2,3-d]pyrimidin-7-one], the melting point fell in the range of 127 to 128 °C.
Compound `Cc1cc(F)ccc1-c1nc(OCCCS(C)(=O)=O)nc2c1ccc(=O)n2-c1c(F)cccc1F` [Example 128, 8-(2,6-Difluorophenyl)-4-(4-fluoro-2-methylphenyl)-2-(3-methanesulfonylpropoxy)-8H-pyrido[2,3-d]pyrimidin-7-one] had a melting point of 160 to 162 °C.
As to `Cc1cc(F)ccc1-c1nc(OCCNC(=O)OC(C)(C)C)nc2c1ccc(=O)n2-c1c(F)cccc1F` [Example 130, 8-(2,6-Difluorophenyl)-4-(4-fluoro-2-methylphenyl)-2-[2-(tert-butoxycarbonylamino)ethoxy]-8H-pyrido[2,3-d]pyrimidin-7-one], the melting point fell in the range of 103 to 105 °C.
`Cc1cc(F)ccc1-c1nc(OCCN)nc2c1ccc(=O)n2-c1c(F)cccc1F` [Example 131, 8-(2,6-Difluorophenyl)-4-(4-fluoro-2-methylphenyl)-2-(2-aminoethoxy)-8H-pyrido[2,3-d]pyrimidin-7-one] gave a melting point of 96 to 99 °C.
Take `CC(=O)NCCOc1nc(-c2ccc(F)cc2C)c2ccc(=O)n(-c3c(F)cccc3F)c2n1` [Example 132, 8-(2,6-Difluorophenyl)-4-(4-fluoro-2-methylphenyl)-2-(2-acetylaminoethoxy)-8H-pyrido[2,3-d]pyrimidin-7-one]: the melting point was 75 to 79 °C.
To `Cc1cc(F)ccc1-c1nc(OCC(CO)CO)nc2c1ccc(=O)n2-c1c(F)cccc1F` [Example 133, 8-(2,6-Difluorophenyl)-4-(4-fluoro-2-methylphenyl)-2-(3-hydroxy-2-hydroxymethylpropoxy)-8H-pyrido[2,3-d]pyrimidin-7-one] belongs 77 to 81 °C; to `Cc1cc(F)ccc1-c1nc(OCCNS(C)(=O)=O)nc2c1ccc(=O)n2-c1c(F)cccc1F` [Example 134, 8-(2,6-Difluorophenyl)-4-(4-fluoro-2-methylphenyl)-2-(2-methanesulfonyl-aminoethoxy)-8H-pyrido[2,3-d]pyrimidin-7-one], 95 to 99 °C.
In turn, `Cc1cc(F)ccc1-c1nc(OCCN(C)S(C)(=O)=O)nc2c1ccc(=O)n2-c1c(F)cccc1F` [Example 135, 8-(2,6-Difluorophenyl)-4-(4-fluoro-2-methylphenyl)-2-(2-N-methanesulfonyl-N-methylaminoethoxy)-8H-pyrido[2,3-d]pyrimidin-7-one] gave a melting point of 89 to 92 °C.
To `Cc1cc(F)ccc1-c1nc(NCCO)nc2c1ccc(=O)n2-c1ccccc1F` [Example 136, 4-(4-fluoro-2-methylphenyl)-8-(2-fluorophenyl)-2-(2-hydroxylethylamino)-5H-pyrido[2,3-d]pyrimidin-7-one] belongs 120 to 124 °C; to `Cc1cc(F)ccc1-c1nc(N[C@@H](C)CO)nc2c1ccc(=O)n2-c1c(F)cccc1F` [Example 137, (S)-4-(4-fluoro-2-methylphenyl)-8-(2,6-difluorophenyl)-2-[(1-hydroxyprop-2-yl)amino]-8H-pyrido[2,3-d]pyrimidin-7-one], 96 to 101 °C; to `Cc1cc(F)ccc1-c1nc(N[C@H](C)CO)nc2c1ccc(=O)n2-c1c(F)cccc1F` [Example 138, (R)-4-(4-fluoro-2-methylphenyl)-8-(2,6-difluorophenyl)-2-[(1-hydroxyprop-2-yl)amino]-8H-pyrido[2,3-d]pyrimidin-7-one], 90 to 95 °C.
Regarding `Cc1cc(F)ccc1-c1nc(NC(C)(C)CO)nc2c1ccc(=O)n2-c1c(F)cccc1F` [Example 139, 4-(4-fluoro-2-methylphenyl)-8-(2,6-difluorophenyl)-2-(1,1-dimethyl-2-hydroxyethylamino)-8H-pyrido[2,3-d]pyrimidin-7-one], the melting point is 99 to 105 °C.
To `CCNc1nc(-c2ccc(F)cc2C)c2ccc(=O)n(-c3ccccc3F)c2n1` [Example 140, 2-Ethylamino-4-(4-fluoro-2-methylphenyl)-8-(2-fluorophenyl)-8H-pyrido[2,3-d]pyrimidin-7-one] belongs 176 to 177 °C; to `Cc1cc(F)ccc1-c1nc(N[C@@H](C)CO)nc2c1ccc(=O)n2-c1ccccc1F` [Example 141, (S)-4-(4-fluoro-2-methylphenyl)-8-(2-fluorophenyl)-2-[(1-hydroxyprop-2-yl)amino]-8H-pyrido[2,3-d]pyrimidin-7-one], 114 to 120 °C.
As for `Cc1cc(F)ccc1-c1nc(N[C@H](C)CO)nc2c1ccc(=O)n2-c1ccccc1F` [Example 142, (R)-4-(4-fluoro-2-methylphenyl)-8-(2-fluorophenyl)-2-[(1-hydroxyprop-2-yl)amino]-8H-pyrido[2,3-d]pyrimidin-7-one], the figure is 116 to 122 °C; as for `Cc1cc(F)ccc1-c1nc(NC(C)(C)CO)nc2c1ccc(=O)n2-c1ccccc1F` [Example 143, 2-(1,1-dimethyl-2-hydroxyethylamino)-4-(4-fluoro-2-methylphenyl)-8-(2 fluorophenyl)-8H-pyrido[2,3-d]pyrimidin-7-one], 106 to 112 °C; as for `Cc1cc(F)ccc1-c1nc(NC2CCCCC2)nc2c1ccc(=O)n2-c1ccccc1F` [Example 145, 2-Cyclohexylamino-4-(4-fluoro-2-methylphenyl)-8-(2-fluorophenyl)-5H-pyrido[2,3-d]pyrimidin-7-one], 181 to 182 °C.
Consider `Cc1cc(F)ccc1-c1nc(NC2CCOCC2)nc2c1ccc(=O)n2-c1ccccc1F` [Example 146, 2-(Tetrahydropyran-4-ylamino)-4-(4-fluoro-2-methylphenyl)-8-(2-fluorophenyl)-8H-pyrido[2,3-d]pyrimidin-7-one], for which the melting point lay within 211 to 212 °C.
As for `CCNc1nc(-c2ccc(F)cc2C)c2ccc(=O)n(-c3c(F)cccc3F)c2n1` [Example 147, 2-Ethylamino-4-(4-fluoro-2-methylphenyl)-8-(2,6-difluorophenyl)-8H-pyrido[2,3-d]pyrimidin-7-one], the figure is 195 to 196 °C; as for `Cc1cc(F)ccc1-c1nc(NC2CCCCC2)nc2c1ccc(=O)n2-c1c(F)cccc1F` [Example 148, 2-Cyclohexylamino-4-(4-fluoro-2-methylphenyl)-8-(2,6-difluorophenyl)-8H-pyrido[2,3-d]pyrimidin-7-one], 218 to 219 °C.
Regarding `Cc1cc(F)ccc1-c1nc(NC2CCOCC2)nc2c1ccc(=O)n2-c1c(F)cccc1F` [Example 149, 2-(Tetrahydropyran-4-ylamino)-4-(4-fluoro-2-methylphenyl)-8-(2,6-difluorophenyl)-8H-pyrido[2,3-d]pyrimidin-7-one], the melting point lay in the range of 231 to 232 °C.
As for `Cc1cc(F)ccc1-c1nc(NCC(F)(F)F)nc2c1ccc(=O)n2-c1ccccc1F` [Example 150, 2-(2,2,2-Trifluoroethylamino)-4-(4-fluoro-2-methylphenyl)-8-(2-fluorophenyl)-8H-pyrido[2,3-d]pyrimidin-7-one], the figure is 187 to 188 °C.
Take `Cc1cc(F)ccc1-c1nc(N[C@H]2CC[C@H](O)CC2)nc2c1ccc(=O)n2-c1ccccc1F` [Example 151, trans-2-(4-Hydroxycyclohexylamino)-4-(4-fluoro-2-methylphenyl)-8-(2-fluorophenyl)-8H-pyrido[2,3-d]pyrimidin-7-one]: the melting point lay within 148 to 151 °C.
`Cc1cc(F)ccc1-c1nc(NC(C)(CO)CO)nc2c1ccc(=O)n2-c1ccccc1F` [Example 152, 2-(1-hydroxymethyl-1-methyl-2-hydroxyethylamino)-4-(4-fluoro-2-methylphenyl)-8-(2-fluorophenyl)-8H-pyrido[2,3-d]pyrimidin-7-one] yielded a melting point of 160 to 162 °C.
To `Cc1cc(F)ccc1-c1nc(NCC(F)(F)F)nc2c1ccc(=O)n2-c1c(F)cccc1F` [Example 153, 2-(2,2,2-Trifluoroethylamino)-4-(4-fluoro-2-methylphenyl)-8-(2,6-difluorophenyl)-8H-pyrido[2,3-d]pyrimidin-7-one] belongs 195 to 196 °C.
In the case of `Cc1cc(F)ccc1-c1nc(NC(C)(CO)CO)nc2c1ccc(=O)n2-c1c(F)cccc1F` [Example 154, 2-(1-hydroxymethyl-1-methyl-2-hydroxyethylamino)-4-(4-fluoro-2-methylphenyl)-8-(2,6-difluorophenyl)-8H-pyrido[2,3-d]pyrimidin-7-one], the melting point fell in the range of 158 to 160 °C.
For `Cc1cc(F)ccc1-c1nc(N[C@H]2CC[C@H](O)CC2)nc2c1ccc(=O)n2-c1c(F)cccc1F` [Example 155, trans-2-(4-Hydroxycyclohexylamino)-4-(4-fluoro-2-methylphenyl)-8-(2,6-difluorophenyl)-8H-pyrido[2,3-d]pyrimidin-7-one], the melting point is 158 to 160 °C.
Compound `CCOc1nc(-c2ccc(F)cc2C)c2ccc(=O)n(-c3ccccc3F)c2n1` [Example 156, 2-Ethoxy-4-(4-fluoro-2-methylphenyl)-8-(2-fluorophenyl)-8H-pyrido[2,3-d]pyrimidin-7-one] had a melting point of 137 to 139 °C.
`CCNC(=O)NCCNc1nc(-c2ccc(F)cc2C)c2ccc(=O)n(-c3c(F)cccc3F)c2n1` [Example 158, 1-[2-[8-(2,6-Difluorophenyl)-4-(4-fluoro-2-methylphenyl)-7-oxo-7,8-dihydro-pyrido[2,3-d]pyrimidin-2-ylamino]ethyl]-3-ethylurea] registered a melting point of 130 to 133 °C.
Turning to `Cc1cc(F)ccc1-c1nc(NCCNC(=O)Nc2ccccc2)nc2c1ccc(=O)n2-c1c(F)cccc1F` [Example 159], the melting point is 142 to 148 °C.
As for `Cc1cc(F)ccc1-c1nc(NCCNC(=O)NC2CCCCC2)nc2c1ccc(=O)n2-c1c(F)cccc1F` [Example 160, 1-[2-[8-(2,6-Difluorophenyl)-4-(4-fluoro-2-methylphenyl)-7-oxo-7,8-dihydro-pyrido[2,3-d]pyrimidin-2-ylamino]ethyl]-3-cyclohexylurea], the figure is 178 to 183 °C.
